Data published in ChEMBL document CHEMBL1201862, “PubChem BioAssay data set” (2004).
Calls of active or inactive are those of the source.

What was measured:
[1] = THP-1 cell cytotoxicity, dose response, cytotoxicity control for non-replicating M. tuberculosis project (AID 489025); type: functional
[2] = Vero E6 cell cytotoxicity, dose response, cytotoxicity control for non-replicating M. tuberculosis project, secondary assay (AID 492998); type: functional, VeroE6; settings: Vero C1008
[3] = cells; type: functional
[4] = target: Genome polyprotein (dengue virus type 2, UniProt P29990); experiment: flavivirus cap methylation enzyme inhibition – biochemical, confirmation dose response, primary screen (AID 588689); type: functional
Genome polyprotein, sequence (P29990 2492-3391 limits assumed): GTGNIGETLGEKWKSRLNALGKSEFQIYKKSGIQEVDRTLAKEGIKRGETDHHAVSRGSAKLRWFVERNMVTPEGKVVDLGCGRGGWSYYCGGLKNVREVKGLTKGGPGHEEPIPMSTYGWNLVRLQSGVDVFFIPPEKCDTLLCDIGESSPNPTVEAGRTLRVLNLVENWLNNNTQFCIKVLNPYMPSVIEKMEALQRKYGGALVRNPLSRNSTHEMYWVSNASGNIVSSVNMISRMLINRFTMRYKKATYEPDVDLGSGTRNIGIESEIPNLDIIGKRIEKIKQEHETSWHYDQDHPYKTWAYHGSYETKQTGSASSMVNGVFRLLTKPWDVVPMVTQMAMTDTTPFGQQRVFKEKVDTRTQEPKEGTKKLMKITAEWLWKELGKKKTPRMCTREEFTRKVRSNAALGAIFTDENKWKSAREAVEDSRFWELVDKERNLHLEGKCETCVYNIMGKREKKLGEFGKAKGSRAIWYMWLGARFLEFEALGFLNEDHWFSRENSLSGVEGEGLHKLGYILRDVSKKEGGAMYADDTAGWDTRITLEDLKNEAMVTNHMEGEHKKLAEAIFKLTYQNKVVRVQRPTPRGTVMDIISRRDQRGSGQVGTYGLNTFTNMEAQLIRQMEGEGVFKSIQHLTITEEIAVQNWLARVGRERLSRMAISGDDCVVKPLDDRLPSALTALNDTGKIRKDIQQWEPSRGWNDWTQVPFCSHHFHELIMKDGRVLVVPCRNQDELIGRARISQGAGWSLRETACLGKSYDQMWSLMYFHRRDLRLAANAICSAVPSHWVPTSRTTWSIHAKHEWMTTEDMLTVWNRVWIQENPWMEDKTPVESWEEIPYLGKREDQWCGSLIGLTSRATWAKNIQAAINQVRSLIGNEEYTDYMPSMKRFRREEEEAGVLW

[5] = target: T1, Fatty acid synthase (Homo sapiens, UniProt P49327); experiment: inhibition of human FAS-TE enzyme activity – biochemical, endpoint fluorescence intensity, uHTS hits, dose response (AID 624327); type: functional;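 note: fluorescence from hydrolysis of an O-methyl fluorescein acyl ester substrate by the enzyme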
T1 sequence (P49327 whole entry): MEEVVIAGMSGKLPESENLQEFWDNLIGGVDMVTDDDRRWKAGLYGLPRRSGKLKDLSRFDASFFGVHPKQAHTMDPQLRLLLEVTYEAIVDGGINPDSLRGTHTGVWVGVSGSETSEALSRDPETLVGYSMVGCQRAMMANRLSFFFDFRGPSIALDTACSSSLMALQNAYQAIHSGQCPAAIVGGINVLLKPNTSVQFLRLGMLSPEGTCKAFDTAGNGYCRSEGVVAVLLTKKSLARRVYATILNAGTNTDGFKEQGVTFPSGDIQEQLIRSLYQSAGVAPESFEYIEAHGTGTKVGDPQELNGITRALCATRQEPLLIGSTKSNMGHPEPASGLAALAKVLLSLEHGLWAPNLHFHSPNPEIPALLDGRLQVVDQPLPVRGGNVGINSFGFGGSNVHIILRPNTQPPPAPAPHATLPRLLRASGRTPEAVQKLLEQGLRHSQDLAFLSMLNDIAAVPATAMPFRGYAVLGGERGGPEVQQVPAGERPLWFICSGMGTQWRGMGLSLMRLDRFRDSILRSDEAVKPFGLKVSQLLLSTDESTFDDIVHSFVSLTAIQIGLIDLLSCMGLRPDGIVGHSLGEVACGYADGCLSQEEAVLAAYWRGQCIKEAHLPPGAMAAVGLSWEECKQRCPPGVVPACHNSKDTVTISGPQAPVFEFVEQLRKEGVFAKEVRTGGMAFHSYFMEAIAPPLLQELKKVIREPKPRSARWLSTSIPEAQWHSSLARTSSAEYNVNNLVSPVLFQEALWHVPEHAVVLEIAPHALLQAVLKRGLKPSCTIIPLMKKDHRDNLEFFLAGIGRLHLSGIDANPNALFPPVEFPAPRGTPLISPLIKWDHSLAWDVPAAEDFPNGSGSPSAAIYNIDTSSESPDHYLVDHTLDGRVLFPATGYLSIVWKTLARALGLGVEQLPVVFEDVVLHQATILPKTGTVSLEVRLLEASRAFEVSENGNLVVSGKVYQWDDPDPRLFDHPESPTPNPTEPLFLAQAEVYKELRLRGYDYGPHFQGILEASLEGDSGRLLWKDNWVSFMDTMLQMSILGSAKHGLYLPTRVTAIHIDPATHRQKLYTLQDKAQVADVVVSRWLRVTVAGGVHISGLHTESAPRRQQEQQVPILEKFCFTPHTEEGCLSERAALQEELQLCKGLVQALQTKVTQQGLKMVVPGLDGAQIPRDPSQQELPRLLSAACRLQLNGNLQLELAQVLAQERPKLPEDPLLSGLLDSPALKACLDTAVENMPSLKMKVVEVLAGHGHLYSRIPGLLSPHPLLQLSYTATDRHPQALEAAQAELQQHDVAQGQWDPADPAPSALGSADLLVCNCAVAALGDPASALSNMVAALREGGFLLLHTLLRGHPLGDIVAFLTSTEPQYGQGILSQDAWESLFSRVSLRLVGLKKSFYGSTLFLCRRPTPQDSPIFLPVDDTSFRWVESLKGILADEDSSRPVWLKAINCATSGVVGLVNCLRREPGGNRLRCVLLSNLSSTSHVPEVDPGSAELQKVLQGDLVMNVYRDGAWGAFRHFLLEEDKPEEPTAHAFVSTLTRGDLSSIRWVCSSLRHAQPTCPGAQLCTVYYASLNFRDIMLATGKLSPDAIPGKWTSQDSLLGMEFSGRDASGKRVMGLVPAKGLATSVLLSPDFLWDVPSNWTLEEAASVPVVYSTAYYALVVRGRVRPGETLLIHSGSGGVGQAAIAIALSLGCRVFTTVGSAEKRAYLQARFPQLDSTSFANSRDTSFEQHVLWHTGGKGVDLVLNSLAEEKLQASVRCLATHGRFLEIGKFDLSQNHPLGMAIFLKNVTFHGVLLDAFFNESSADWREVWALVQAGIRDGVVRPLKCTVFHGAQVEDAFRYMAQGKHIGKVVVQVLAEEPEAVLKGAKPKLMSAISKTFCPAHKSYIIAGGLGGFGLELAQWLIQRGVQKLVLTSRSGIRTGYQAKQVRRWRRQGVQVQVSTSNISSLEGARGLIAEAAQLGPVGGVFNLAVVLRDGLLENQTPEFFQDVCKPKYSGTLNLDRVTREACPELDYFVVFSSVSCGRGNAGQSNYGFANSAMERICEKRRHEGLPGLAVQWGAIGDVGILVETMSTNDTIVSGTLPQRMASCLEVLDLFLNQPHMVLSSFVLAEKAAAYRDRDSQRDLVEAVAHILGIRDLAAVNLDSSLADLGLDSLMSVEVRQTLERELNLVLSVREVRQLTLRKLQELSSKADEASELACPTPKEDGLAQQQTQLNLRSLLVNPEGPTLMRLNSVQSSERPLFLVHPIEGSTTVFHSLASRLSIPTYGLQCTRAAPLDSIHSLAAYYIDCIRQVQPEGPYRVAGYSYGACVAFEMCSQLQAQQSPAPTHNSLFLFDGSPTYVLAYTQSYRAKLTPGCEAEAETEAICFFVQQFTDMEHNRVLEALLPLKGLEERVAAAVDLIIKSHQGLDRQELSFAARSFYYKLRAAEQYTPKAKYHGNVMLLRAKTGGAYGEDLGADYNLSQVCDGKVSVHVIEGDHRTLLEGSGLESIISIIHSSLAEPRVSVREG

[6] = target: T1, Fatty acid synthase; experiment: inhibition of human FAS-TE enzyme activity – biochemical, kinetic fluorescence intensity, dose response (AID 624326); type: functional;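 note: rate of fluorescence rise from hydrolysis of a fluorogenic O-methyl fluorescein ester substrate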
[7] = reduction of Shn3 3'UTR-driven luciferase in osteoblasts – cell-based, Clone20 osteoblasts, firefly luciferase, cherry-picked, dose response (AID 624132); type: functional;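 note: firefly luciferase luminescence from reporter carrying the Shn3 3'UTR in osteoblasts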
[8] = loss of viability in HepG2 cells – cell-based, CellTiter-Glo, cherry-picked, cytotoxicity control for Shn3 inhibitor project, dose response (AID 624134); type: functional
[9] = non-specific 3'UTR reporter inhibition in Clone20-Shn3RL – cell-based, Renilla luciferase, cherry-picked, counter-screen for Shn3 inhibitor project, dose response (AID 624133); type: functional
[10] = target: T2, Protein skinhead-1 (Caenorhabditis elegans, UniProt P34707); type: functional
T2 sequence (P34707 whole entry): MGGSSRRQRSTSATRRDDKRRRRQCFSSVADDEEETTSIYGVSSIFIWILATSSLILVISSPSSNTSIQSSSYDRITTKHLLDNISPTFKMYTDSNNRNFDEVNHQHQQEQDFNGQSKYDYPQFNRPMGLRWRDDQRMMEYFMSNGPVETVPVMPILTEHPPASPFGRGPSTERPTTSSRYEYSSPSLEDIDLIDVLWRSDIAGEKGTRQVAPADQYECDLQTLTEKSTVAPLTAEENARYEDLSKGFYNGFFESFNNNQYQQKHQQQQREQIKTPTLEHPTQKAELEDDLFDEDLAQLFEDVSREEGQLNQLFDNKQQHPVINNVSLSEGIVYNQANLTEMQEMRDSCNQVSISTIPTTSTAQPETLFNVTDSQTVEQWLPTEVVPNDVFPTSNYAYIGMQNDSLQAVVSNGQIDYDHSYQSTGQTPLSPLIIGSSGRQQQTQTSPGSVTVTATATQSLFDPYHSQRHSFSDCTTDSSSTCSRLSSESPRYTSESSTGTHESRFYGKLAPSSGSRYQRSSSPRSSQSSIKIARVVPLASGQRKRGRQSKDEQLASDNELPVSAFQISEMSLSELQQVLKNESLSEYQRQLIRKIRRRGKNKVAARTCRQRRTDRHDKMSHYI

[11] = target: T3, Cytochrome P450 1A2 (Homo sapiens, UniProt P05177);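 note: PubChem cytochrome P450 panel assay, CYP1A2 panel member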
T3 sequence (P05177 whole entry): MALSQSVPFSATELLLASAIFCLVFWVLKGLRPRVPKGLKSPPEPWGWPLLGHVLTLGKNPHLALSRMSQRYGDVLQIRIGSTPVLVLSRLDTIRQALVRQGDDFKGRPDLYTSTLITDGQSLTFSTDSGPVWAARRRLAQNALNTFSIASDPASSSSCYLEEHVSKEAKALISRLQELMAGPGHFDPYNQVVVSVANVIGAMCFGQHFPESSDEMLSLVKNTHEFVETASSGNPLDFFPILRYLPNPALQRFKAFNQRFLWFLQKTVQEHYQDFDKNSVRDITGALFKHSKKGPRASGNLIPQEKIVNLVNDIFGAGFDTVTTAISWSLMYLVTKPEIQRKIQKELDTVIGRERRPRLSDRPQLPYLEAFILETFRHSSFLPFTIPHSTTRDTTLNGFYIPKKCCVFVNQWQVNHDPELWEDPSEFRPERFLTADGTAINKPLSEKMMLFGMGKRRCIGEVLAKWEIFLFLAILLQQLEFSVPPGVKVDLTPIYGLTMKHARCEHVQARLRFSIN

[12] = target: Cytochrome P450 3A4 (Homo sapiens, UniProt P08684);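 note: CYP3A4 tested as one member of a cytochrome P450 panel screen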
Cytochrome P450 3A4, sequence (P08684 whole entry): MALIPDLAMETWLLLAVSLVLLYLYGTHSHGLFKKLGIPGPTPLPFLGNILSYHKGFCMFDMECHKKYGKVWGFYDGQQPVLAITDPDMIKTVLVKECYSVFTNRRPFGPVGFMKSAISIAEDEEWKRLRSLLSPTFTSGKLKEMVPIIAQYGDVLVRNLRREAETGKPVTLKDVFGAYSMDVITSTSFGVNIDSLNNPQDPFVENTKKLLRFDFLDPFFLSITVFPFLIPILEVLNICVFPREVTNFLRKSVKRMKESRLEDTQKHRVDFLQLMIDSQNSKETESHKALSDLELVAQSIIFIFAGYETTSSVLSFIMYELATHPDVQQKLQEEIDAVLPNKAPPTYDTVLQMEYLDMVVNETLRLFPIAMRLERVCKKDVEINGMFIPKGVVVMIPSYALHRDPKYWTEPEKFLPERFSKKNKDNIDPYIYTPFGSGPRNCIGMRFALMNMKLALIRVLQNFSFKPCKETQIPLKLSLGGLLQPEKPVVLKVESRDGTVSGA

[13] = tested on: HEK293; experiment: EBV LMP1 TES2 canonical NF-kB signalling blockers – cell-based, HEK293, luciferase, cherry-pick, dose response (AID 588343); type: functional; settings: Homo sapiens
[14] = target: T4, High affinity choline transporter 1 (Homo sapiens, UniProt Q9GZV3); experiment: human choline transporter blockers, potency – cell-based, 5-point CRC, membrane potential dye, dose response (AID 504840); type: functional
T4 sequence (Q9GZV3 whole entry): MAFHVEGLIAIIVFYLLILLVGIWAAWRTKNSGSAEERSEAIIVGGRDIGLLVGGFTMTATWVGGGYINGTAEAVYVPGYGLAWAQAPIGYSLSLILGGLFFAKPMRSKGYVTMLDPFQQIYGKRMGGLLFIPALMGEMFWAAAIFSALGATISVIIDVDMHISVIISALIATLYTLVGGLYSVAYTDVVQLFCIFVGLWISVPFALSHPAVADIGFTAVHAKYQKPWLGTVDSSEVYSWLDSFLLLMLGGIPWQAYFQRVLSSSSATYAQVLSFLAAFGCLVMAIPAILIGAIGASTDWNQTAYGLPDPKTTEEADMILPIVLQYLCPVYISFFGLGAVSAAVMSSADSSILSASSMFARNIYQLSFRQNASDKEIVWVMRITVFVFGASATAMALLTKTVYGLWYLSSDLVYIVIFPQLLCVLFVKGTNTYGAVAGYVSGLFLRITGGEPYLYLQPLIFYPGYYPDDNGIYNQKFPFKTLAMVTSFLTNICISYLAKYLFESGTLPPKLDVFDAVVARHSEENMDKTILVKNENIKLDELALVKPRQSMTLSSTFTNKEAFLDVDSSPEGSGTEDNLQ

[15] = target: T5, Coagulation factor XII (Homo sapiens, UniProt P00748); type: functional;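 note: activated factor XIIa alpha cleaving a fluorogenic AMC peptide substrate; inhibitor potency from loss of enzyme activity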
T5 sequence (P00748 whole entry): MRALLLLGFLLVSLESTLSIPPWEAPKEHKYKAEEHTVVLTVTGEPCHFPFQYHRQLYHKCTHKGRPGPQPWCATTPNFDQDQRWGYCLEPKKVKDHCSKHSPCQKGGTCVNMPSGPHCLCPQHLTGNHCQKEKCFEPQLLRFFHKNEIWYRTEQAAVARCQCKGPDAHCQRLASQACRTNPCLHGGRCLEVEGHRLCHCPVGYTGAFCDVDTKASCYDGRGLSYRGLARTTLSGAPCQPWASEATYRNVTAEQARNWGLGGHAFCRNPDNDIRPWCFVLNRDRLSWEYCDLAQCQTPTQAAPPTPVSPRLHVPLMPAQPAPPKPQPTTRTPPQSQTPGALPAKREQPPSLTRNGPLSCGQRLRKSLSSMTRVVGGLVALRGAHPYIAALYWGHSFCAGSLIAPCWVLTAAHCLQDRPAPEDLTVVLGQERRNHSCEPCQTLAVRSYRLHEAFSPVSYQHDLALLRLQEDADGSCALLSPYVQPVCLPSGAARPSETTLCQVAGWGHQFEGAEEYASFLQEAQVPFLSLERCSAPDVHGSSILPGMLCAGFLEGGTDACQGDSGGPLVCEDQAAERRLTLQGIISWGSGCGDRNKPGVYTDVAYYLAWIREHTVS

[16] = target: Glucose-6-phosphate 1-dehydrogenase (Homo sapiens, UniProt P11413); experiment: inhibition of Homo sapiens G6PD, dose series – biochemical, fluorescence, selectivity assay for P. falciparum G6PD inhibitor project, dose response (AID 504792); type: functional
[17] = target: Cytochrome P450 2C19 (Homo sapiens, UniProt P33261); experiment: Cytochrome panel assay with activity outcomes. Panel member name: p450-cyp2c19 Compounds with AC50 equal or less than 10 uM are considered active; type: functional; settings: read-out: AC50
Cytochrome P450 2C19, sequence (P33261 whole entry): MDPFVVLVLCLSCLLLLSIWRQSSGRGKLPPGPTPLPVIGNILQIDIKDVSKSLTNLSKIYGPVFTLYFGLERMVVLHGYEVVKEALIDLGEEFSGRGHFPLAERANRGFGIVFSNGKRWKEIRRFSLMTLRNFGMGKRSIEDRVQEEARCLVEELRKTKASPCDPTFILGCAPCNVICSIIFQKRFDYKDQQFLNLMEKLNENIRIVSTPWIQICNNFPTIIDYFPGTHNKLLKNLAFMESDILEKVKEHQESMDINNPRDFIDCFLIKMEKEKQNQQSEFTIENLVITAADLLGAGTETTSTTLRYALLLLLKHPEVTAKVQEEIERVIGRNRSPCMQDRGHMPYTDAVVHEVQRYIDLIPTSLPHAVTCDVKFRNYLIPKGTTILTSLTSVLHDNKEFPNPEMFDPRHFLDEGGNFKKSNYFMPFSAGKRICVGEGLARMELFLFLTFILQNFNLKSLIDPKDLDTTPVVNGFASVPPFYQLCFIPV

[18] = target: Cytochrome P450 2C9 (Homo sapiens, UniProt P11712)
[19] = tested on: BJ; experiment: BJ-TERT fibroblast viability loss – cell-based, RAS-independent, luminescence, dose response (AID 1933); type: functional; settings: Homo sapiens
[20] = target: T6, Heat shock factor protein 1 (Mus musculus, UniProt P38532); experiment: decrease of HSF1-responsive luciferase luminescence – cell-based, NIH3T3, dose retest, confirmation (AID 2382); type: functional;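 note: NIH3T3 fibroblasts with HSF1-driven luciferase reporter stressed by proteasome inhibitor MG132; luminescence from HSF1-driven luciferase expression after 8 hours of MG132 stress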
T6 sequence (P38532 whole entry): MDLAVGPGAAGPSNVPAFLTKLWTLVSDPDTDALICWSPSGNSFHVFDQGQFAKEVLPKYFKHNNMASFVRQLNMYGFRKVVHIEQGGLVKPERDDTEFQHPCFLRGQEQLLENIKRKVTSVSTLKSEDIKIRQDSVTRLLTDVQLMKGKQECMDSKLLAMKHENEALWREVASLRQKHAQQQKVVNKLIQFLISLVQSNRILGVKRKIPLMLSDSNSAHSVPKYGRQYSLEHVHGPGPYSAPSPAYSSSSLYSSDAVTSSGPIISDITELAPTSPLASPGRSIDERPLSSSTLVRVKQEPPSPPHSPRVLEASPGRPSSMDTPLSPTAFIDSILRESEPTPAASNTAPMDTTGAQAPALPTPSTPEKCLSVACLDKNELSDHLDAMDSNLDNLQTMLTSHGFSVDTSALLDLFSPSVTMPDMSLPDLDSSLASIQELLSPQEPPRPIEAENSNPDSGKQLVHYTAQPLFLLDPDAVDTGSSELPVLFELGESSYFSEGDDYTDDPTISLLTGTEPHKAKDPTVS

[21] = tested on: BJ; experiment: cells; type: functional, cell-based; settings: Homo sapiens
[22] = target: Luciferin 4-monooxygenase (Photinus pyralis, UniProt P08659); experiment: inhibition of purified Photinus pyralis luciferase – biochemical, luminescence, dose response (AID 1891)
Luciferin 4-monooxygenase, sequence (P08659 whole entry): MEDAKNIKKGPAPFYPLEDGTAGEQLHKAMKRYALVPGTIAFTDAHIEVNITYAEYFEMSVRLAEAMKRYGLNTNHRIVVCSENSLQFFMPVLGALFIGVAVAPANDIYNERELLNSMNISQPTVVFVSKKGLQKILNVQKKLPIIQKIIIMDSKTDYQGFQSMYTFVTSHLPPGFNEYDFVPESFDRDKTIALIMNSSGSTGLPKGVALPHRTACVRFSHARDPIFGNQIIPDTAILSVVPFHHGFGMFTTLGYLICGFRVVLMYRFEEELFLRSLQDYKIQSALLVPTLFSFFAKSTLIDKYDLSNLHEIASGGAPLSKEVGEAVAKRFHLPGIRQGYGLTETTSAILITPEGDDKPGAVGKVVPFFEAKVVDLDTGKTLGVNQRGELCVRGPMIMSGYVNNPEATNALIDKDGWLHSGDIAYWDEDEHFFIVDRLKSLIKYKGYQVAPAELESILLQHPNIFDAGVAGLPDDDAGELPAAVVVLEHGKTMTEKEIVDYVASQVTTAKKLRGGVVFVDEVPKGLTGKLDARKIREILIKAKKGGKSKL

[23] = Luminescence Cell-Based Dose Confirmation HTS to Identify Inhibitors of Platelet Dense Granule Release. [Related pubchem assays: 1663 (Primary HTS), 1678 (Summary of Project)]; type: functional
[24] = tested on: BJ; experiment: BJ-TERT-LT-ST fibroblast viability loss – cell-based, RAS-independent, luminescence, dose response (AID 1935); type: functional; settings: Homo sapiens;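 note: BJ fibroblasts immortalized with TERT plus LT and ST oncogenes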
[25] = DRD fibroblast viability loss – cell-based, non-viral oncogenic, luminescence, dose response (AID 1934); type: functional; settings: Homo sapiens
[26] = HEK-293T viability loss after treatment – luminescence, T-cell screen hits, cytotoxicity control for TCR NF-kB inhibitor project, dose response (AID 489026); type: functional, cell-based;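 note: cells exposed to compound about 14 hours before the viability readout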

Cc1cc(NC(=O)c2ccccc2F)n(-c2nc3ccccc3[nH]2)n1
CC50 [1]: > 40 µM (active) | CC50 [2]: 17.6 µM (active) | IC50 [3]: > 50 µM (active)

CCOC(=O)c1sc(N2C(=O)C(O)=C(C(=O)c3ccco3)C2c2ccc([N+](=O)[O-])cc2)nc1C (stereo not given)
IC50 [4]: 38.1 µM (active) | IC50 [5]: 5.46 µM (active) | IC50 [6]: 7.89 µM (active)

Cc1c(C(=O)Nc2cccc(C(F)(F)F)c2)oc2ccc(S(=O)(=O)N3CCOCC3)cc12
AC50 [7]: 3.8 µM (active) | AC50 [8]: > 70 µM (inactive) | AC50 [9]: > 70 µM (inactive) | IC50 [10]: > 100 µM (inactive) | AC50 [11]: 10 µM (inconclusive) | AC50 [12]: inconclusive

O=C(c1ccc(COc2ccccc2Cl)o1)N1CCCC1
AC50 [13]: 77.8 µM (active)

CCCCc1ccc(NC(=O)CSc2nc(=O)n(CCCN3CCOCC3)c3c2CCC3)cc1
IC50 [14]: 13.8 µM (active)

CCOC(=O)C1(Cc2cccc(F)c2)CCN(C(=O)Cn2cnnn2)CC1
IC50 [15]: > 50 µM (inactive)

CC(C)Cn1c(-c2ccccc2)nc2ccccc2c1=O
IC50 [15]: > 50 µM (inactive)

COc1ccc(CCn2c(NN=C3CCCCC3)nc3c2c(=O)[nH]c(=O)n3C)cc1
IC50 [16]: 11.6 µM (active)

O=C(O)/C(=C\c1c(C(=O)O)[nH]c2cc(Cl)cc(Cl)c12)c1ccccc1
IC50 [4]: 75.5 µM (active)

CC(=O)O[C@H]1CC[C@@]2(C)C(=CC[C@@H]3[C@H]2CC[C@]2(C)C(=O)CC[C@H]32)C1
AC50 [17]: 5.01 µM (inconclusive) | AC50 [18]: 15.8 µM (inconclusive) | AC50 [12]: inconclusive

COc1ccc(Cl)cc1NC(=O)CN(C)S(=O)(=O)c1cccs1
AC50 [13]: 51.2 µM (active)

Cc1ccc(-c2cc3c(N=O)c4ccccc4c-3[nH]n2)cc1
EC50 [19]: 6.45 µM (active) | EC50 [20]: 4.95 µM (active) | EC50 [21]: 6.73 µM (active) | EC50 [22]: 0.207 µM (active) | EC50 [23]: 3.05 µM (active) | EC50 [24]: 13.1 µM (active) | EC50 [25]: 6.32 µM (active) | IC50 [26]: > 80 µM (inactive)
